Laboratory results from ChEMBL document CHEMBL1201862, “PubChem BioAssay data set” (2004).
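Test compounds were applied to cells in 96-well plates for 48 hours at 5 doses. GI50: concentration for 50% inhibition of growth.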 The source made the active and inactive calls. No stated cut-off is given here; in the data, active = GI50 up to about 1.1 µM and inactive = higher.

Key:
Assay in all cases: NCI anticancer screen, dose series, 48 h
COLO 205 = system: COLO 205
HOP-92 = system: HOP-92
SNB-19 = system: SNB-19
SK-MEL-5 = system: SK-MEL-5
K562 = system: K562
HT-29 = system: HT-29
OVCAR-8 = system: OVCAR-8
SF-268 = system: SF-268
EKVX = system: EKVX
NCI-H522 = system: NCI-H522
LOX IMVI = system: LOX IMVI
U-251 = system: U-251
HCC 2998 = system: HCC 2998
SR = system: SR
MOLT-4 = system: MOLT-4
SK-MEL-2 = system: SK-MEL-2

Measured: GI50

COC(=O)C(Cc1c[nH]c2ccccc12)NC(=O)C(Cc1c[nH]c2ccccc12)NC(=O)OCc1ccccc1 (stereo not given)
inactive: COLO 205 16.8 µM | HOP-92 20 µM | SNB-19 17.5 µM | SK-MEL-5 29.5 µM | K562 23.6 µM | HT-29 20 µM | OVCAR-8 17.9 µM | SF-268 19.1 µM | EKVX 18.6 µM | NCI-H522 16.3 µM | LOX IMVI 18.3 µM | U-251 16.9 µM | HCC 2998 17.8 µM

CC12CCC(=O)N1c1ccc([N+](=O)[O-])cc1N2 (stereo not given)
inactive: COLO 205 > 100 µM | SR 71 µM | MOLT-4 83.4 µM | SK-MEL-2 > 100 µM | SNB-19 > 100 µM | SK-MEL-5 > 100 µM | K562 > 100 µM | HT-29 > 100 µM | OVCAR-8 > 100 µM | SF-268 > 100 µM | EKVX > 100 µM | NCI-H522 > 100 µM | LOX IMVI > 100 µM | U-251 > 100 µM

C=CCN1CCC23c4c5ccc(O)c4OC2C(=NN=C2CCC4(O)C6Cc7ccc(O)c8c7C4(CCN6CC=C)C2O8)CCC3(O)C1C5 (stereo not given)
inactive: COLO 205 19.9 µM | HOP-92 17.6 µM | MOLT-4 38.3 µM | SK-MEL-2 18 µM | SNB-19 44.3 µM | SK-MEL-5 20.4 µM | K562 26.2 µM | HT-29 18.3 µM | OVCAR-8 25.6 µM | SF-268 53.8 µM | EKVX 28.5 µM | NCI-H522 31 µM | LOX IMVI 20 µM | U-251 18.9 µM | HCC 2998 21.3 µM

O=C(CCC(=O)C(C(=O)c1ccccc1)c1ccccc1)Nc1cccc(C(F)(F)F)c1 (stereo not given)
inactive: COLO 205 > 100 µM | HOP-92 > 100 µM | MOLT-4 > 100 µM | SK-MEL-2 > 100 µM | SNB-19 > 100 µM | K562 > 100 µM | HT-29 > 100 µM | OVCAR-8 > 100 µM | SF-268 > 100 µM | EKVX > 100 µM | NCI-H522 > 100 µM | LOX IMVI > 100 µM | U-251 > 100 µM | HCC 2998 > 100 µM

CCCN(CCC)c1c([N+](=O)[O-])cc(C(N)=O)cc1[N+](=O)[O-]
inactive: COLO 205 86.9 µM | MOLT-4 37 µM | SK-MEL-2 74.5 µM | SK-MEL-5 1.16 µM | K562 31.1 µM | HT-29 > 100 µM | OVCAR-8 92.9 µM | SF-268 > 100 µM | EKVX 36.3 µM | NCI-H522 36.7 µM | U-251 69 µM | HCC 2998 91 µM

COCOCc1cc(OCc2ccccc2)c(OC)cc1Br
inactive: COLO 205 > 100 µM | HOP-92 > 100 µM | SR 63.1 µM | SK-MEL-2 > 100 µM | SNB-19 > 100 µM | SK-MEL-5 61.1 µM | K562 63.8 µM | HT-29 > 100 µM | OVCAR-8 > 100 µM | SF-268 84.9 µM | EKVX > 100 µM | LOX IMVI 52.8 µM | U-251 > 100 µM

COc1ccc(C(=O)C(C(=O)CCC(=O)Nc2ccc(Cl)c(Cl)c2)c2ccc(OC)cc2)cc1 (stereo not given)
inactive: HOP-92 > 100 µM | MOLT-4 > 100 µM | SK-MEL-2 > 100 µM | SNB-19 > 100 µM | SK-MEL-5 > 100 µM | K562 > 100 µM | HT-29 > 100 µM | OVCAR-8 > 100 µM | SF-268 > 100 µM | EKVX > 100 µM | NCI-H522 > 100 µM | LOX IMVI > 100 µM | U-251 > 100 µM | HCC 2998 > 100 µM

CCOC(=O)C1N(S(=O)(=O)c2ccc(C)cc2)CCC12c1ccccc1N(C(C)=O)C2c1ccc(OC)c(OC)c1 (stereo not given)
inactive: COLO 205 > 100 µM | HOP-92 47.8 µM | SNB-19 > 100 µM | SK-MEL-5 > 100 µM | K562 80.7 µM | HT-29 > 100 µM | OVCAR-8 > 100 µM | SF-268 > 100 µM | EKVX > 100 µM | NCI-H522 > 100 µM | LOX IMVI > 100 µM | U-251 > 100 µM | HCC 2998 > 100 µM

CC(C)(C)C(=O)Nc1ccccc1Br
inactive: COLO 205 > 100 µM | HOP-92 > 100 µM | MOLT-4 > 100 µM | SK-MEL-2 > 100 µM | SNB-19 > 100 µM | SK-MEL-5 > 100 µM | K562 > 100 µM | HT-29 > 100 µM | OVCAR-8 > 100 µM | EKVX > 100 µM | LOX IMVI > 100 µM | U-251 > 100 µM | HCC 2998 > 100 µM

CSc1ccc2c(cc1=O)C(NC(=O)c1ccc(OC(C)=O)cc1)CCc1cc(O)c(O)c(O)c1-2 (stereo not given)
inactive: COLO 205 16.9 µM | SR 7.94 µM | MOLT-4 5.11 µM | SK-MEL-2 16.2 µM | SNB-19 35.2 µM | SK-MEL-5 16 µM | K562 1.95 µM | HT-29 19.6 µM | OVCAR-8 25.1 µM | SF-268 42.1 µM | EKVX 20.5 µM | NCI-H522 12.8 µM | U-251 20.4 µM | HCC 2998 74.1 µM

CCOC(=O)C12CCCC1(O)N(NC(=O)OC)C(C)=C2C(=O)OC (stereo not given)
inactive: COLO 205 > 100 µM | HOP-92 > 100 µM | MOLT-4 > 100 µM | SK-MEL-2 14.1 µM | SNB-19 > 100 µM | K562 > 100 µM | HT-29 > 100 µM | OVCAR-8 > 100 µM | SF-268 > 100 µM | EKVX > 100 µM | NCI-H522 > 100 µM | LOX IMVI > 100 µM | U-251 > 100 µM | HCC 2998 > 100 µM

O=c1[nH]c2c(c3ccccc13)CCc1ccccc1-2
inactive: COLO 205 > 100 µM | SR > 100 µM | MOLT-4 > 100 µM | SK-MEL-2 > 100 µM | SNB-19 > 100 µM | SK-MEL-5 > 100 µM | K562 > 100 µM | HT-29 > 100 µM | OVCAR-8 > 100 µM | SF-268 > 100 µM | EKVX > 100 µM | NCI-H522 > 100 µM | U-251 > 100 µM | HCC 2998 > 100 µM

Cc1nc2c(N)ncnc2o1
inactive: COLO 205 > 100 µM | HOP-92 > 100 µM | MOLT-4 > 100 µM | SK-MEL-2 > 100 µM | SNB-19 > 100 µM | SK-MEL-5 > 100 µM | K562 > 100 µM | HT-29 > 100 µM | OVCAR-8 > 100 µM | SF-268 > 100 µM | EKVX > 100 µM | NCI-H522 > 100 µM | LOX IMVI > 100 µM | U-251 > 100 µM | HCC 2998 > 100 µM

N#CC(C#N)=c1c2nsnc2c(=C(C#N)C#N)c2nsnc12
inactive: COLO 205 2.52 µM | HOP-92 1.45 µM | SK-MEL-2 2.02 µM | SNB-19 2.16 µM | HT-29 1.59 µM | OVCAR-8 1.69 µM | SF-268 2.3 µM | EKVX 4.2 µM | NCI-H522 1.96 µM | LOX IMVI 1.58 µM | U-251 1.79 µM | HCC 2998 1.77 µM
